Data from patent publication US8536196B2, “Substituted 1,3-dioxanes useful as PPAR modulators” (Evolva SA, priority 2007, dated 2013).

Columns and labels:
MEFs / 3T3-L1 = assay: Adipocyte differentiation induction assay (Oil Red O staining); type: cell-based, mouse; design: key to Adip. (adipocyte differentiation): 0: similar results to DPD; −1: even less adipocyte differentiation; +1: more adipocyte differentiation (both relative to DPD); conditions: for Adip. (adipocyte differentiation): relative to DPD (SN1)
Protocol: This example describes an assay for determining adipocyte differention. Compounds are tested to see whether they induce adipocyte differentiation and also to see whether they inhibit adipocyte differention.
MEFs were grown in AmnioMax basal medium (Gibco) supplemented with 7.5% Amniomax supplement C-100 (Gibco), 7.5% Fetal Bovine Serum (FBS), 2 mM Glutamine, 62.5 μg/ml penicillin and 100 μg/ml Streptomycin (growth medium). At confluence, MEFs were induced to differentiation in growth medium with the addition of 1 μM dexamethasone (Sigma) 0.5 mM isobutylmethylxanthine (Sigma), 5 μg/ml insulin (Sigma) and 10 μM test compound dissolved in DMSO or DMSO alone. Medium was subsequently renewed every 48 hrs with growth media supplemented with 5 μg/ml Insulin and ligand or DMSO.
Briefly, to test compounds as inducers of adipocyte differentiation, 3T3-L1 are grown to confluence in DMEM with 10% Calf serum (CS), typically in 24 well dishes. At 2 days post confluence (day 0), cells are induced to differentiate with DMEM supplemented with 10% fetal bovine serum (FBS), 1 μM dexamethasone and the test compound (01, 1 and 10 μM). BRL49653 (1.0 μM dissolved in 100% DMSO) is used as a positive control. After 48 h, the cells are re-fed with DMEM containing 10% FBS supplemented with the test compound or the positive control. From day 4, cells are grown in DMEM with 10% FBS and are changed every second day until day 8. At day 8, cells are stained with Oil Red O as described below.
Cells cultured as described above are used for Oil Red staining. Dishes are washed in PBS and cells were fixed in 3.7% paraformaldehyde for 1 h and stained with oil red O as described in (Hansen et al 1999). Oil red O solution stock solution is prepared by dissolving 0.5 g of Oil Red O (Sigma) in 100 mL of isopropanol. Oil re 0 working solution is prepared by diluting a stock solution with water (6:4) followed by filtration.
Table II summarizes results obtained with different analogs of DPD (SN1), “0” representing similar results to DPD, “−1” representing even less adipocyte differentiation, “+1” representing more adipocyte differentiation (both relative to DPD) and “−” meaning not assayed.

Gal4-PPARgammaLBD = biological target: T1, Gal4-PPARgammaLBD (Homo sapiens, UniProt P37231); assay: PPARgamma transactivation assay (Gal4-PPARgammaLBD, UASx4-TK-luc reporter); type: cell-based; conditions: for PPAR (PPARgamma activating activity): level of activity relative to 10 μM DPD (SN1)
T1 construct: expressed in transfected cells; host or cells: mouse embryonic fibroblasts (MEFs) or ME3 cells
T1 sequence (P37231 204-505): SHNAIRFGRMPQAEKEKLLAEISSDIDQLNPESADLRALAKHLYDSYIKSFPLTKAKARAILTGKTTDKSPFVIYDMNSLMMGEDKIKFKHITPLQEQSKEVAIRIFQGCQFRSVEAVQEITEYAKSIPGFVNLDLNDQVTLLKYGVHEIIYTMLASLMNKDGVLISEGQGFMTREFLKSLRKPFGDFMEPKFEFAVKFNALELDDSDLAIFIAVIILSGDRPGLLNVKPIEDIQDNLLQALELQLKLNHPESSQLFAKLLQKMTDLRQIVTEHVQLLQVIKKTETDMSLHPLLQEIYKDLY
Description: This is an example of a transactivation assay for determining PPAR gamma modulating activity.
The UASx-4-TK-luc reporter construct (where UAS refers to “upstream activator sequence”) contains four Gal4-responsive elements. The plasmid Gal4-PPARgammaLBD encodes a Gal4-DBD-PPARgamma-LBD fusion protein (i.e. the DNA-binding domain, DBD, of Gal4 fused to the ligand-binding domain, LBD, of PPARgamma) capable of transactivating the UASx-4-TK-luc reporter plasmid by binding to the UAS. The CMV-beta-galactosidase plasmid (where CMV is cytomegalovirus) is used for normalization of experimental values.
The cells were replated, typically in 24 well plates, so that at the time of transfection the cells are 50-70% confluent.
Briefly, per well in a 24 well plate, UASx4TKIuc (0.2 μg) Gal4-PPARgammaLBD (or pM-hPPARgamma-LBD; 0.1 μg) and CMV-beta-galactosidase (0.05 μg) in 30 μL DMEM (free of serum and antibiotics) is mixed with 30 μL DMEM (free of serum and antibiotics) containing 1 μL metafectenein. The mixture is incubated at room temperature for 20 min to allow formation of nucleic acid-lipid complexes and then approximately 60 μL is added to each well containing the 50-60% confluent cells. […] Cells were harvested after 12-24 hours and luciferase and beta-galactosidase activities were measured according to standard protocols.
“−” means that testing was not performed.

[1] = tested on: mice (FeCl3 induced femoral artery thrombosis); assay: FeCl3 arterial thrombosis mouse model (occlusion time, blood flow); type: in vivo
Protocol: The solutions were diluted 3.3-fold in saline and 100 μl/25 g was injected.
During the experiments, a soluble potassium salt of the drug was provided, diluted in saline. Of this formulation, 100 μl/25 g was injected i.v. in the tail vein (dose of 100 mg/kg).
Aspirin is given the same way at a dose of 200 mg/kg. Clopidogrel is administered by oral gavage at a dose of 20 mg/kg at 6-7 hours prior to the experiment. The solutions were coded (except for clopidogrel) and the operator was blinded to the code. The animals assigned to each group were matched for body weight. All mice used were 8-10 weeks old males and were in a 100% Swiss genetic background.
(§1) The flow in each image is expressed as a percentage of that at the contralateral side, and data are averaged for all 120 images to determine total flow. The same analysis is performed for 10 min intervals (which gives essentially the same information as the area under the curve). […] Flow before treatment is recorded as 100%, and that in occluded arteries as 0%. At the end of the experiment, blood is collected on 0.01M citrate by heart puncture for determination of blood cell counts. Plasma is prepared by centrifugation and stored at −20° C. for determination of drug levels.
Statistical analysis for differences between two groups is performed by non-parametric Student t-test. Occlusion times >30 min were considered equal to 30 min for statistical analysis. It should be noted that this approach may result in a statistical bias, the more so because the number of experiments is not the same in the different groups. Significance is set at p<0.05.

[2] = Blood cell analysis at end of thrombosis experiment; type: in vivo, mouse
Protocol: as §1
Table VI summarizes the results of blood cell analysis performed on a sample taken at the end of the observation period. (Z)-6-((2S,4S,5R)-2-(2-chlorophenyl)-4-(2-hydroxyphenyl)-1,3-dioxan-5-yl)hex-4-enoic is referred to in Table VI as EV.

[3] = Aspirin 200 mg/kg i.v., n = 7, mean ± SEM
[4] = Clopidogrel 20 mg/kg oral gavage, n = 6, mean ± SEM

## C/C=C/CC1OC[C@@H](C/C=C\CCC(=O)O)[C@@H](c2ccccc2O)O1 (stereo partly drawn) [compound 12]
MEFs / 3T3-L1
  Adip. (adipocyte differentiation): −1

## O=C(O)CC/C=C\C[C@@H]1COC(c2cccc3ccccc23)O[C@@H]1c1ccccc1O (stereo partly drawn) [compound 9]
MEFs / 3T3-L1
  Adip. (adipocyte differentiation): 0

## O=C(O)CC/C=C\C[C@@H]1COC(c2ccccc2-c2ccccc2)O[C@@H]1c1ccccc1O (stereo partly drawn) [compound 10]
MEFs / 3T3-L1
  Adip. (adipocyte differentiation): 0
Gal4-PPARgammaLBD
  PPARgamma activity (summary in words): PPARgamma antagonist
  PPAR (PPARgamma activating activity): Antagonist

## O=C(O)CC/C=C\C[C@@H]1COC2(CCCCC2)O[C@@H]1c1ccccc1O [compound 6]
MEFs / 3T3-L1
  Adip. (adipocyte differentiation): 0

## CCCCCC1OC[C@@H](C/C=C\CCC(=O)O)[C@@H](c2ccccc2O)O1 (stereo partly drawn) [compound 11]
MEFs / 3T3-L1
  Adip. (adipocyte differentiation): +1

## CC(C)[C@H]1OC[C@@H](C/C=C\CCC(=O)O)[C@@H](c2ccccc2O)O1 [compound 20]
MEFs / 3T3-L1
  Adip. (adipocyte differentiation): 0

## O=C(O)CC/C=C\C[C@@H]1COC(c2coc3ccc(Cl)cc3c2=O)O[C@@H]1c1ccccc1O (stereo partly drawn) [compound 13]
MEFs / 3T3-L1
  adipocyte differentiation (summary in words): low or no adipocyte differentiation
  Adip. (adipocyte differentiation): −1
Gal4-PPARgammaLBD
  PPARgamma activity (summary in words): higher potency

## COc1ccccc1[C@H]1OC(C)(C)OC[C@H]1C/C=C\CCCCC(=O)O [compound 37]
MEFs / 3T3-L1
  Adip. (adipocyte differentiation): 0
Gal4-PPARgammaLBD
  PPAR (PPARgamma activating activity): Inactive

## O=C([O-])CC/C=C\C[C@@H]1CO[C@H](c2ccccc2Cl)O[C@@H]1c1ccccc1O.[K+] [(Z)-6-((2S,4S,5R)-2-(2-chlorophenyl)-4-(2-hydroxyphenyl)-1,3-dioxan-5-yl(hex-4-enoic potassium]
[1]; 100 mg/kg in saline i.v.
  blood flow, time window 0-10 min: significantly higher blood flow as compared to either saline alone (p=0.009) or to aspirin (p=0.0006)
  occlusion time: prolonged the occlusion time
  total blood flow: significantly improved total blood flow as compared to either saline (p=0.0032) or aspirin (p=0.0021)

## O=C(O)CC/C=C\C[C@@H]1COC2(CCNCC2)O[C@@H]1c1ccccc1O [compound 8]
MEFs / 3T3-L1
  Adip. (adipocyte differentiation): −1
Gal4-PPARgammaLBD
  PPAR (PPARgamma activating activity): Boc de- rivative Inactive

## CC(=O)Oc1ccccc1C(=O)O [Aspirin, reference compound]
[1]; 200 mg/kg i.v. in the tail vein
  occlusion time: no effect
[1]; 200 mg/kg i.v., versus vehicle
  total blood flow: no significant effect
[2]; [3]
  Hematocrit: 72 ± 0.60%
  Hemoglobin: 15 ± 0.19 g/dL
  Lymphocytes: 60 ± 11%
  Neutrophils: 39 ± 11%
  Platelets: 1020 ± 59 ×10^3/μl
  Red blood cells: 9.3 ± 0.10 ×10^6/μl
  White blood cells: 1.4 ± 0.42 ×10^3/μl

## COc1ccccc1[C@H]1O[C@@H](c2c(Cl)cccc2Cl)OC[C@H]1C/C=C\CCC(=O)O [compound 28]
Gal4-PPARgammaLBD
  PPAR (PPARgamma activating activity): Inactive

## COc1ccccc1[C@H]1O[C@@H](c2ccccc2Cl)OC[C@H]1C/C=C\CCC(=O)O [Compound 5, (Z)-6-((2S,4S,5R)-2-(2-chlorophenyl)-4-(2-methoxyphenyl)-1,3-dioxan-5-yl)hex-4-enoic acid]
MEFs / 3T3-L1
  Adip. (adipocyte differentiation): 0

## COc1cccc([C@H]2OC[C@@H](C/C=C\CCC(=O)O)[C@@H](c3ccccc3O)O2)c1OC [compound 19]
MEFs / 3T3-L1
  Adip. (adipocyte differentiation): 0

## CC1(C)OC[C@@H](C/C=C\CCCCC(=O)O)[C@@H](c2ccccc2O)O1 [compound 36]
Gal4-PPARgammaLBD
  PPAR (PPARgamma activating activity): Inactive

## COc1ccc(Oc2ccccc2C2OC[C@@H](C/C=C\CCC(=O)O)[C@@H](c3ccccc3O)O2)cc1 (stereo partly drawn) [compound 7]
MEFs / 3T3-L1
  adipocyte differentiation (summary in words): low or no adipocyte differentiation
  Adip. (adipocyte differentiation): 0
Gal4-PPARgammaLBD
  PPARgamma activity (summary in words): higher potency

## COc1ccccc1[C@H]1OC[C@@H](C/C=C\CCC(=O)O)[C@@H](c2ccccc2O)O1 [compound 18]
MEFs / 3T3-L1
  Adip. (adipocyte differentiation): −1

## O=C(O)CC/C=C\C[C@@H]1COC(c2cccc(Cl)c2Cl)O[C@@H]1c1ccccc1O (stereo partly drawn) [compound 2]
MEFs / 3T3-L1
  Adip. (adipocyte differentiation): 0

## O=C(O)CCC/C=C\C[C@@H]1CO[C@H](c2ccccc2Cl)O[C@@H]1c1ccccc1O [compound 23]
MEFs / 3T3-L1
  Adip. (adipocyte differentiation): +1

## COc1ccccc1[C@@H]1O[C@H](c2ccccc2Cl)OC[C@@H]1C/C=C\CCC(=O)O [Compound 4, (Z)-6-((2R,4R,5S)-2-(2-chlorophenyl)-4-(2-methoxyphenyl)-1,3-dioxan-5-yl)hex-4-enoic acid]
MEFs / 3T3-L1
  Adip. (adipocyte differentiation): 0

## COC(=O)[C@H](c1ccccc1Cl)N1CCc2sccc2C1 [Clopidogrel, reference compound]
[1]; 20 mg/kg oral gavage 6-7 hours prior to the experiment, 30 min observation
  occlusion: totally prevents occlusion within 30 min in 6/7 experiments
[1]; 20 mg/kg oral gavage, versus vehicle
  total blood flow: significantly improved total blood flow
[2]; [4]
  Hematocrit: 72 ± 2.7%
  Hemoglobin: 15 ± 0.60 g/dL
  Lymphocytes: 47 ± 7.8%
  Neutrophils: 50 ± 7.2%
  Platelets: 1060 ± 106 ×10^3/μl
  Red blood cells: 9.0 ± 0.36 ×10^6/μl
  White blood cells: 0.62 ± 0.22 ×10^3/μl

## O=C(O)CCCCCCC[C@@H]1CO[C@H](c2ccccc2Cl)O[C@@H]1c1ccccc1O [compound 31]
MEFs / 3T3-L1
  Adip. (adipocyte differentiation): 0

## O=C(O)CC/C=C\C[C@@H]1CO[C@H](C2CCCCC2)O[C@@H]1c1ccccc1O [compound 21]
MEFs / 3T3-L1
  Adip. (adipocyte differentiation): 0

## COc1ccccc1[C@H]1OC(c2ccccc2Cl)OC[C@H]1C/C=C\CCC(=O)O (stereo partly drawn) [compound 27]
Gal4-PPARgammaLBD
  PPAR (PPARgamma activating activity): Inactive

## O=C(O)CC/C=C\C[C@@H]1CO[C@H](c2ccccc2Cl)O[C@@H]1c1ccccc1O [compound 1]
MEFs / 3T3-L1
  Adip. (adipocyte differentiation): 0
